Measurements taken from patent US6136781A, “LH-RH receptor antagonists” (Takeda Chemical Industries, Ltd., priority 1995, dated 2000).
Where two headings read alike, the source gives them in different places. Square brackets hold non-standard residues; d marks the D form. Peptide text beside a SMILES is read from it. * marks the point of attachment. Naphthalene1sulfonyl = O=S(=O)(c1cccc2ccccc12)*; Gly(2-thienyl) = N[C@H](C(=O)O)c1cccs1; Hexanoyl(6-Ph) = O=C(CCCCCc1ccccc1)*; Mtr = COc1cc(C)c(S(=O)(=O)*)c(C)c1C; Butanoyl(4-Ph) = O=C(CCCc1ccccc1)*; 1Naphthoyl = O=C(c1cccc2ccccc12)*; NHPhenethyl = c1ccc(CCN*)cc1; Phg = N[C@H](C(=O)O)c1ccccc1; Tos = Cc1ccc(S(=O)(=O)*)cc1; Bz = O=C(c1ccccc1)*

Columns and labels:
Human LH-RH Receptor = target: T1, Human LH-RH Receptor (Homo sapiens, UniProt P30968); test: Inhibition of bonding of 125I-leuprorelin to human LH-RH receptor (receptor assay); type: binding; conditions: human LH-RH receptor-expressing CHO cell membrane fraction, 25° C. for 60 minutes, Hill plotting
T1 construct: expressed in transfected cells; host or cells: CHO cells (Chinese hamster ovary), membrane fraction
T1 sequence (P30968 1-328): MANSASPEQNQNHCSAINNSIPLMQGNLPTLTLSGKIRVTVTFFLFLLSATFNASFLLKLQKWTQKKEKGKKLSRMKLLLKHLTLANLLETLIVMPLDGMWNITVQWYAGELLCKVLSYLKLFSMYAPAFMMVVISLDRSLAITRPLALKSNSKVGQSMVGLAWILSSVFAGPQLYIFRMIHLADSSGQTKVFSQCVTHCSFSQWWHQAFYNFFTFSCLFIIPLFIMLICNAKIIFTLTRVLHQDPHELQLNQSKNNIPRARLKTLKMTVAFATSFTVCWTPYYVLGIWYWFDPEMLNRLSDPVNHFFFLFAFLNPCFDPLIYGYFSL
Method: Human LH-RH receptor-expressing CHO cells (10^9 cells) were floated in a phosphate buffer saline containing 5 mM EDTA (PBS-EDTA) and subjected to centrifugation at 100×g for 5 minutes. 10 ml of a cell homogenate buffer (10 mM NaHCO3, 5 mM EDTA, pH 7.5) was added to the resulting cell pellets, and the resulting mixture was then homogenized in a polytron homogenizer. This was thereafter centrifuged at 400×g for 15 minutes, and the resulting supernatant was collected in an ultra-centrifuger and again centrifuged at 100,000×g for 1 hour to obtain a precipitate of the cell membrane fraction. This precipitate was suspended in 2 ml of an assay buffer and centrifuged at 100,000×g for 1 hour. The cell membrane fraction thus collected as a precipitate was again suspended in 20 ml of an assay buffer, put into plural vials and stored at -80° C. These were individually thawed before use.
Determination of Percentage of Inhibition of Bonding of ^125 I-Leuprorelin to Human LH-RH Receptor
The human LH-RH receptor-expressing CHO cell membrane fraction as prepared in Reference Example 2 was diluted with an assay buffer to have a concentration of 200 μg/ml and put into plural tubes at 188 μl/tube. Where the human LH-RH receptor-expressing CHO cell membrane fraction was used, 2 μl of a solution of the test compound (2 mM) as dissolved in 60%-DMSO and 10 μl of ^125 I-leuprorelin (38 nM) were added to the dilution of the fraction. In order to measure the maximum amount of the ^125 I-leuprorelin as bonded to the receptor, a reaction system comprising 2 μl of 60%-DMSO and 10 μl of ^125 -leuprorelin (38 nM) was prepared. In order to measure the amount of ^125 I-leuprorelinas non-specifically bonded to the receptor, a reaction system comprising 2 μl of leuprorelin (100 μM) as dissolved in 60%-DMSO and 10 μl of ^125 I-leuprorelin (38 nM) was prepared.
Each system of the present invention comprising the human LH-RH receptor-expressing CHO cell membrane fraction was reacted at 25° C. for 60 minutes. After the reaction, the reaction mixture was filtered under suction through a polyethyleneimine-treated Wattman glass filter (GF-F). After the filtration, the radioactivity of ^125 I-leuprorelin in the residue remained on the filter paper was measured using a g-counter.
From the data measured, a value of [(TB-SB)/(TB-NSB)]×100 (where SB is the radioactivity of the test system to which the test compound had been added; TB is the radioactivity of the maximum bonding system; and NSB is the radioactivity of the non-specific bonding system) was calculated, which indicates the bonding-inhibition percentage (%) of the compound tested. […] The results obtained are shown in [Table 1].

[1] = amide bond, 15-membered ring
[2] = amide bond; 15-membered ring; PyBOP/DIEA; DMF; 25.0 °C; 2 steps
[3] = amide bond, 15-membered ring, DMF, 5 steps
[4] = DIEA/AcOH, DMF, resin, with chain assembly

`Cc1ccc(S(=O)(=O)NC(=N)NCCC[C@H]2NC(=O)[C@H](Cc3ccccc3)NC(=O)[C@H](Cc3c[nH]c4ccccc34)NC(=O)[C@@H](C)NC(=O)[C@H](Cc3ccccc3)NC2=O)cc1` [Example 37, cyclo(-Phe-D-Arg(Tos)-Phe-D-Ala-Trp-)] (cyclo(F[dA]WF[dR](Tos))) gave an IC50 (Human LH-RH Receptor) of 0.3 µM.

`Cc1ccc(S(=O)(=O)NC(=N)NCCC[C@H]2NC(=O)[C@H](c3ccccc3)NC(=O)[C@H](Cc3ccccc3)NC(=O)[C@@H](C)NC(=O)[C@H](Cc3ccccc3)NC2=O)cc1` [Example 53, cyclo(-Phg-D-Arg(Tos)-Phe-D-Ala-Phe-)] (cyclo(F[Phg][dR](Tos)F[dA])) gave an IC50 (Human LH-RH Receptor) of 0.1 µM.

With `COc1cc(C)c(S(=O)(=O)NC(=N)NCCC[C@H]2NC(=O)[C@H](Cc3ccccc3)NC(=O)[C@H](Cc3c[nH]c4ccccc34)NC(=O)[C@@H](C)NC(=O)[C@H](Cc3ccccc3)NC2=O)c(C)c1C` [Example 35, cyclo(-Phe-D-Arg-(Mtr)-Phe-D-Ala-Trp-)] (cyclo(F[dA]WF[dR](Mtr))) the IC50 (Human LH-RH Receptor) was 0.4 µM.

Work on `C[C@H]1NC(=O)[C@H](Cc2ccccc2)NC(=O)[C@H](CCCNC(=N)N)NC(=O)[C@H](Cc2ccccc2)NC(=O)[C@H](Cc2c[nH]c3ccccc23)NC1=O` [Example 43, cyclo(-Phe-Arg-Phe-D-Ala-Trp-)] (cyclo(FRF[dA]W)) yielded an IC50 (Human LH-RH Receptor) of 1 µM.

`C[C@H]1NC(=O)[C@H](Cc2ccccc2)NC(=O)[C@@H](CCCNC(=N)N)NC(=O)[C@H](Cc2ccccc2)NC(=O)[C@H](Cc2c[nH]c3ccccc23)NC1=O` [Example 36, cyclo(-Phe-D-Arg-Phe-D-Ala-Trp-)] (cyclo(F[dA]WF[dR])) gave an IC50 (Human LH-RH Receptor) of 0.9 µM.

Work on `Cc1ccc(S(=O)(=O)NC(=N)NCCC[C@H]2NC(=O)[C@H](c3ccccc3)NC(=O)[C@H](Cc3c[nH]c4ccccc34)NC(=O)[C@@H](C)NC(=O)[C@H](Cc3ccccc3)NC2=O)cc1` [Example 48, cyclo(-Phg-D-Arg(Tos)-Phe-D-Ala-Trp-)] (cyclo(F[dA]W[Phg][dR](Tos))) yielded an IC50 (Human LH-RH Receptor) of 0.07 µM.

Molecule “Cyclo(-Arg(Tos)-D-Glu(NHCH2 CH2 Ph)-Lys(Cl-Z)-D-Trp-Leu-)” has a ring closure, crude yield ([1]; ONB active ester, 4 steps) of 72.3%.

Molecule `CC(C)C[C@@H]1NC(=O)[C@@H](Cc2c[nH]c3ccccc23)NC(=O)[C@H](Cc2ccc(O)cc2)NC(=O)[C@@H]2CCCN2C(=O)[C@H](Cc2c[nH]c3ccccc23)NC(=O)[C@H](CCCNC(=N)N)NC1=O` [Reference Example 1, cyclo(-Tyr-D-Trp-Leu-Arg-Trp-Pro-), reference compound] (cyclo(LRWPY[dW])) has an IC50 (Human LH-RH Receptor) of 10 µM.

cyclo(-Phe-D-Arg(Tos)-Phe-D-Trp-Trp-) showed a ring closure, isolated yield [2] of 83%.

In the case of `CC(C)C[C@@H]1NC(=O)[C@@H](Cc2c[nH]c3ccccc23)NC(=O)[C@H](CCCCNC(=O)c2ccccc2)NC(=O)[C@@H](CCC(=O)NCCc2ccccc2)NC(=O)[C@H](CCCNC(=N)N)NC1=O` [Example 21, cyclo(-Arg-D-Glu(NHCH2 CH2 Ph)-Lys(COPh)-D-Trp-Leu-)] (cyclo(K(Bz)[dW]LR[dE](NHPhenethyl))), the IC50 (Human LH-RH Receptor) is reported as 0.4 µM.

`CC(C)C[C@@H]1NC(=O)[C@@H](Cc2c[nH]c3ccccc23)NC(=O)[C@H](CCCCNC(=O)c2cccc3ccccc23)NC(=O)[C@@H](CCC(=O)NCCc2ccccc2)NC(=O)[C@H](CCCNC(=N)N)NC1=O` [Example 31, cyclo(-Arg-D-Glu(NHCH2 CH2 Ph)-Lys(CONap(1))-D-Trp-Leu-)] (cyclo(K(1Naphthoyl)[dW]LR[dE](NHPhenethyl))) showed an IC50 (Human LH-RH Receptor) of 0.2 µM.

`CC(C)C[C@@H]1NC(=O)[C@@H](Cc2c[nH]c3ccccc23)NC(=O)[C@H](Cc2ccc(O)cc2)NC(=O)[C@@H](CCCCNS(=O)(=O)c2cccc3ccccc23)NC(=O)[C@H](CCCNC(=N)N)NC1=O` [Example 1, cyclo(-Arg-D-Lys(SO2 Nap(1))-Tyr-D-Trp-Leu-)] (cyclo(LR[dK](Naphthalene1sulfonyl)Y[dW])) gave an IC50 (Human LH-RH Receptor) of 0.9 µM.

In the case of cyclo(-Phe-D-Arg(Tos)-Phe-D-Phe-Trp-), the ring closure, isolated yield [2] is reported as 70.6%.

With `CC(C)C[C@@H]1NC(=O)[C@@H](Cc2c[nH]c3ccccc23)NC(=O)[C@H](Cc2ccc(O)cc2)NC(=O)[C@@H](CCCCNC(=O)CCCc2ccccc2)NC(=O)[C@H](CCCNC(=N)N)NC1=O` [Example 19, cyclo(-Arg-D-Lys(COCH2 CH2 CH2 Ph)-Tyr-D-Trp-Leu-)] (cyclo(LR[dK](Butanoyl(4-Ph))Y[dW])) the IC50 (Human LH-RH Receptor) was 1 µM.

For `Cc1ccc(S(=O)(=O)NC(=N)NCCC[C@H]2NC(=O)[C@H](c3cccs3)NC(=O)[C@H](Cc3c[nH]c4ccccc34)NC(=O)[C@@H](C)NC(=O)[C@H](Cc3ccccc3)NC2=O)cc1` [Example 54, cyclo(-Thg(2)-D-Arg(Tos)-Phe-D-Ala-Trp-)] (cyclo(F[dA]W[Gly(2-thienyl)][dR](Tos))), the IC50 (Human LH-RH Receptor) was 0.3 µM.

Molecule `C[C@H]1NC(=O)[C@H](Cc2ccccc2)NC(=O)[C@@H](CCCNC(=N)N)NC(=O)[C@H](c2ccccc2)NC(=O)[C@H](Cc2c[nH]c3ccccc23)NC1=O` [Example 55, cyclo(-Phg-D-Arg-Phe-D-Ala-Trp-)] (cyclo(F[dA]W[Phg][dR])) has an IC50 (Human LH-RH Receptor) of 0.2 µM.

Work on `CC(C)C[C@@H]1NC(=O)[C@@H](Cc2c[nH]c3ccccc23)NC(=O)[C@H](Cc2ccc(O)cc2)NC(=O)[C@@H](CCCCNC(=O)CCCCCc2ccccc2)NC(=O)[C@H](CCCNC(=N)N)NC1=O` [Example 20, cyclo(-Arg-D-Lys (COCH2 CH2 CH2 CH2 CH2 Ph)-Tyr-D-Trp-Leu-)] (cyclo(LR[dK](Hexanoyl(6-Ph))Y[dW])) yielded an IC50 (Human LH-RH Receptor) of 0.1 µM.

Molecule “cyclo(-pClPhe-D-Arg(Tos)-Nal(2)-D-Ala-Trp-)” has a ring closure, crude yield [1, 4] of 92.8%.

Work on `Cc1ccc(S(=O)(=O)NC(=N)NCCC[C@H]2NC(=O)[C@H](C)NC(=O)[C@H](Cc3c[nH]c4ccccc34)NC(=O)[C@@H](C)NC(=O)[C@H](Cc3ccccc3)NC2=O)cc1` [Example 51, cyclo(-Ala-D-Arg(Tos)-Phe-D-Ala-Trp-)] (cyclo(A[dR](Tos)F[dA]W)) yielded an IC50 (Human LH-RH Receptor) of 0.2 µM.

“cyclo(-pClPhe-Arg(Tos)-Nal(2)-D-Ala-Trp-)” showed a ring closure, crude yield [1, 4] of 59.1%.

`CC(C)C[C@@H]1NC(=O)[C@@H](Cc2c[nH]c3ccccc23)NC(=O)[C@H](CCCNC(=N)N)NC(=O)[C@@H](Cc2ccc(O)cc2)NC(=O)[C@@H](CCCCNS(=O)(=O)c2cccc3ccccc23)NC1=O` [Example 23, cyclo(-D-Tyr-Arg-D-Trp-Leu-D-Lys(SO2 Nap(1))-)] (cyclo(L[dK](Naphthalene1sulfonyl)[dY]R[dW])) gave an IC50 (Human LH-RH Receptor) of 0.9 µM.

For “cyclo(-Arg-D-Glu(NHCH2 CH2 Ph)-Lys(COPh)-D-Trp-Trp-)”, the ring closure, yield after HPLC ([3]; ONB active ester/DIEA, 0.93 mM) was 13.9%.

In the case of “cyclo(-Leu-D-Arg-Lys(SO2 Nap(1)-D-Tyr-Trp-)”, the ring closure, yield after HPLC ([3]; DIEA, 1.1 mM) is reported as 21.1%.
